Laboratory results reported in PMC7893793 (ACS Omega, 2021).

Assays:
[1] = Pharmacokinetic study in rats after oral administration of PbR extract; format: in vivo, rat; conditions: for AUC(0-inf) / AUC(0-t) / Cmax / MRT inf / MRT last / Tmax / half-life: male, Wistar, plasma, po, 5 g/kg; for AUC(0-inf) / AUC(0-t) / Cmax / MRT inf / MRT last / Tmax / half-life / absorption characteristics: rat; for absorption characteristics: oral administration of PbR
[2] = Stability of analytes in rat plasma samples; format: in vitro ADME; conditions: three freeze–thaw (−80 °C–room temperature) cycles, low, medium and high QC samples

Row | Compound | AUC(0-inf) [1] [µg·h/mL] | AUC(0-t) [1] [µg·h/mL] | Cmax [1] [µg/mL] | MRT inf [1] [h] | MRT last [1] [h] | Tmax [1] [h] | half-life [1] [h] | absorption characteristics [1] | freeze–thaw stability in plasma samples [2] | detection in rat plasma ([1]; after oral administration of PbR at a dose of 0.5 g/100 g)
1 | COC(=O)C1=CO[C@@H](O[C@@H]2O[C@H](CO)[C@@H](O)[C@H](O)[C@H]2O)[C@H]2[C@@H]1[C@H](O)C[C@]2(C)O [shanzhiside methyl ester] | 0.159 ± 0.0342 | 0.141 ± 0.0334 | 0.0416 ± 0.0138 | 5.28 ± 0.73 | 3.84 ± 0.61 | 0.7 ± 0.14 | 3.59 ± 1.05 | good absorption characteristics | No significant degradation | 
2 | C[C@@H]1O[C@@H](O[C@@H]2[C@@H](O)[C@H](OCCc3ccc(O)c(O)c3)O[C@H](COC(=O)/C=C/c3ccc(O)c(O)c3)[C@H]2O)[C@H](O)[C@H](O)[C@H]1O [isoacteoside] |  |  |  |  |  |  |  |  |  | neither of these were detected
3 | COC(=O)C1=CO[C@@H](O[C@@H]2O[C@H](CO)[C@@H](O)[C@H](O)[C@H]2O)[C@H]2[C@@H]1[C@H](O)C[C@]2(C)OC(C)=O [barlerin] | 0.0632 ± 0.0174 | 0.0551 ± 0.0155 | 0.0244 ± 0.0084 | 4.65 ± 1.43 | 3.12 ± 0.64 | 0.33 ± 0.13 | 3.33 ± 1.21 | good absorption characteristics | No significant degradation | 
